How the values were obtained:
Type in all cases: physicochemical
[1] = Solvency of the active substance in monomers (visual inspection); parameters: key: Excellent: The active substance was not found to have been precipitated in the solution of active substance both immediately after the preparation and after the preservation for 7 days.; Good: The active substance was found to have been precipitated in the solution of active substance immediately after the preparation, but the active substance was not found to have been precipitated in the solution of active substance after the preservation for 7 days.; Poor: The active substance was found to have been precipitated in the solution of active substance both immediately after the preparation and after the preservation for 7 days; conditions: 25° C., 7 days
[2] = Residual rate of the active substance in monomer solution (HPLC); conditions: for Residual Rate (% by weight) after 7 Days: 25° C.
[3] = Solvency of DMAE in alcohol/additive; conditions: 25° C.
Method: When a crystal of DMAE was precipitated […], and when a crystal of DMAE was not precipitated, the solvency was evaluated to be “poor”.

[4] = Solubility of DMAE at 25° C. in alcohol/additive
Excerpt: When the content of the saturated aliphatic monohydric alcohol is small in the plaster layer described above, the solvency and diffusibility of the DMAEs in the plaster layer decrease, and the transdermal absorbency of the DMAEs becomes insufficient. When the content of the saturated aliphatic monohydric alcohol is large in the plaster layer, the acrylic adhesive in the plaster layer becomes excessively plasticized, leading to an adhesive transfer when the transdermal patch is removed away from the skin. Therefore, the content of the saturated aliphatic monohydric alcohol in the plaster layer is limited to 1 to 30% by weight, and preferably 5 to 30%.
An excess amount of DMAEs is added to the saturated aliphatic monohydric alcohol, a weight W0 (g) of the alcohol being measured in advance; a solution temperature is set at 50° C. to keep the warmth for one hour or more than one hour; and then a shaking operation is continued in a water bath of 25° C. for 10 minutes by means of supersonic waves to prepare a DMAEs saturated solution. Next, the DMAEs saturated solution, after being arranged to stand still for 24 hours at 25° C., is centrifuged at a speed of 3000 r.p.m., and a certain amount of clear supernatant solution of the DMAEs saturated solution is collected. Then, such collected clear supernatant solution is subjected to HPLC determination to determine a weight W1 (g) of the DMAEs dissolved in the DMAEs saturated solution, and solubility of the DMAEs with respect to the saturated aliphatic monohydric alcohol is figured out by using the following equation (1).
Solubility of DMAEs (g)=(W1/W0)×100 Equation (1)

[5] = 3 parts active substance in 100 parts 1-Vinyl-2-Pyrrolidone
[6] = 3 parts active substance in 100 parts 2-Ethylhexyl Acrylate
[7] = 3 parts active substance in 100 parts 2-Ethylhexyl Methacrylate
[8] = 3 parts active substance in 100 parts Acrylic Acid
[9] = 3 parts active substance in 100 parts Butyl Acrylate
[10] = 3 parts active substance in 100 parts Butyl Methacrylate
[11] = 3 parts active substance in 100 parts Dodecyl Methacrylate
[12] = 3 parts active substance in 100 parts Ethyl Acrylate
[13] = in Butyl Acrylate, N.D. = equal to or less than the HPLC detection limit
[14] = in Ethyl Acrylate, N.D. = equal to or less than the HPLC detection limit

O=[N+]([O-])O[C@H]1CO[C@H]2[C@@H]1OC[C@H]2O[N+](=O)[O-] [ISDN, isosorbide dinitrate]
100 % by weight: Residual Rate (% by weight) Immediately after Preparation ([2]; in 1-Vinyl-2-Pyrrolidone) | Residual Rate (% by weight) after 7 Days ([2]; in 1-Vinyl-2-Pyrrolidone) | Residual Rate (% by weight) Immediately after Preparation ([2]; in 2-Ethylhexyl Acrylate) | Residual Rate (% by weight) after 7 Days ([2]; in 2-Ethylhexyl Acrylate) | Residual Rate (% by weight) Immediately after Preparation ([2]; in 2-Ethylhexyl Methacrylate) | Residual Rate (% by weight) Immediately after Preparation ([2]; in Acrylic Acid) | Residual Rate (% by weight) after 7 Days ([2]; in Acrylic Acid) | Residual Rate (% by weight) Immediately after Preparation ([2]; in Butyl Acrylate) | Residual Rate (% by weight) after 7 Days [2, 13] | Residual Rate (% by weight) Immediately after Preparation ([2]; in Butyl Methacrylate) | Residual Rate (% by weight) after 7 Days ([2]; in Butyl Methacrylate) | Residual Rate (% by weight) Immediately after Preparation ([2]; in Dodecyl Methacrylate) | Residual Rate (% by weight) after 7 Days ([2]; in Dodecyl Methacrylate) | Residual Rate (% by weight) after 7 Days ([2]; in Ethyl Acrylate) | Residual Rate (% by weight) Immediately after Preparation [2, 14]
99 % by weight: Residual Rate (% by weight) after 7 Days ([2]; in 2-Ethylhexyl Methacrylate)
Excellent: Solvency of the active substance [1, 5] | Solvency of the active substance [1, 6] | Solvency of the active substance [1, 7] | Solvency of the active substance [1, 8] | Solvency of the active substance [1, 9] | Solvency of the active substance [1, 10] | Solvency of the active substance [1, 11] | Solvency of the active substance [1, 12]

CC(C)(C)NCC(O)c1ccccc1Cl (stereo not shown) [TB, tulobuterol]
88 % by weight: Residual Rate (% by weight) after 7 Days ([2]; in 2-Ethylhexyl Acrylate)
Good: Solvency of the active substance [1, 11]
70 % by weight: Residual Rate (% by weight) after 7 Days ([2]; in Ethyl Acrylate)
81 % by weight: Residual Rate (% by weight) after 7 Days [2, 13]
100 % by weight: Residual Rate (% by weight) Immediately after Preparation ([2]; in 1-Vinyl-2-Pyrrolidone) | Residual Rate (% by weight) after 7 Days ([2]; in 1-Vinyl-2-Pyrrolidone) | Residual Rate (% by weight) Immediately after Preparation ([2]; in 2-Ethylhexyl Acrylate) | Residual Rate (% by weight) Immediately after Preparation ([2]; in 2-Ethylhexyl Methacrylate) | Residual Rate (% by weight) after 7 Days ([2]; in 2-Ethylhexyl Methacrylate) | Residual Rate (% by weight) Immediately after Preparation ([2]; in Acrylic Acid) | Residual Rate (% by weight) Immediately after Preparation ([2]; in Butyl Acrylate) | Residual Rate (% by weight) Immediately after Preparation ([2]; in Butyl Methacrylate) | Residual Rate (% by weight) after 7 Days ([2]; in Butyl Methacrylate) | Residual Rate (% by weight) Immediately after Preparation ([2]; in Dodecyl Methacrylate) | Residual Rate (% by weight) after 7 Days ([2]; in Dodecyl Methacrylate) | Residual Rate (% by weight) Immediately after Preparation [2, 14]
96 % by weight: Residual Rate (% by weight) after 7 Days ([2]; in Acrylic Acid)
Excellent: Solvency of the active substance [1, 5] | Solvency of the active substance [1, 6] | Solvency of the active substance [1, 7] | Solvency of the active substance [1, 8] | Solvency of the active substance [1, 9] | Solvency of the active substance [1, 10] | Solvency of the active substance [1, 12]

COc1ccc2c(c1)c(CC(=O)O)c(C)n2C(=O)c1ccc(Cl)cc1 [IMT, indomethacin]
100 % by weight: Residual Rate (% by weight) Immediately after Preparation ([2]; in 1-Vinyl-2-Pyrrolidone) | Residual Rate (% by weight) after 7 Days ([2]; in 1-Vinyl-2-Pyrrolidone) | Residual Rate (% by weight) Immediately after Preparation ([2]; in 2-Ethylhexyl Acrylate) | Residual Rate (% by weight) after 7 Days ([2]; in 2-Ethylhexyl Acrylate) | Residual Rate (% by weight) Immediately after Preparation ([2]; in 2-Ethylhexyl Methacrylate) | Residual Rate (% by weight) after 7 Days ([2]; in 2-Ethylhexyl Methacrylate) | Residual Rate (% by weight) Immediately after Preparation ([2]; in Acrylic Acid) | Residual Rate (% by weight) after 7 Days ([2]; in Acrylic Acid) | Residual Rate (% by weight) Immediately after Preparation ([2]; in Butyl Acrylate) | Residual Rate (% by weight) after 7 Days [2, 13] | Residual Rate (% by weight) Immediately after Preparation ([2]; in Butyl Methacrylate) | Residual Rate (% by weight) Immediately after Preparation ([2]; in Dodecyl Methacrylate) | Residual Rate (% by weight) after 7 Days ([2]; in Dodecyl Methacrylate) | Residual Rate (% by weight) Immediately after Preparation [2, 14]
Excellent: Solvency of the active substance [1, 5] | Solvency of the active substance [1, 8]
99 % by weight: Residual Rate (% by weight) after 7 Days ([2]; in Butyl Methacrylate) | Residual Rate (% by weight) after 7 Days ([2]; in Ethyl Acrylate)
Poor: Solvency of the active substance [1, 6] | Solvency of the active substance [1, 7] | Solvency of the active substance [1, 9] | Solvency of the active substance [1, 10] | Solvency of the active substance [1, 11] | Solvency of the active substance [1, 12]

COc1ccc(OC)c(C(O)CN)c1 (stereo not shown) [DMAE, 2-amino-1-(2′,5′-dimethoxyphenyl)ethanol]
1.4 g: Solubility of DMAE ([4]; g DMAE per 100 g Hexyldecanol at 25° C.)
98 % by weight: Residual Rate (% by weight) Immediately after Preparation ([2]; in Butyl Methacrylate) | Residual Rate (% by weight) after 7 Days ([2]; in Butyl Methacrylate)
27 % by weight: Residual Rate (% by weight) Immediately after Preparation ([2]; in Butyl Acrylate)
Excellent: Solvency of the active substance [1, 8] | Solvency of the active substance [1, 12] | Solvency of DMAE ([3]; 50 parts DMAE in 950 parts Diethyl Sebacate) | Solvency of DMAE ([3]; 50 parts DMAE in 950 parts Hexyldecanol) | Solvency of DMAE ([3]; 50 parts DMAE in 950 parts Isostearyl Alcohol) | Solvency of DMAE ([3]; 50 parts DMAE in 950 parts Lauryl Alcohol) | Solvency of DMAE ([3]; 50 parts DMAE in 950 parts Liquid Paraffin) | Solvency of DMAE ([3]; 50 parts DMAE in 950 parts Medium-chain Triglyceride) | Solvency of DMAE ([3]; 50 parts DMAE in 950 parts Octyldodecanol) | Solvency of DMAE ([3]; 50 parts DMAE in 950 parts Oleic Acid) | Solvency of DMAE ([3]; 50 parts DMAE in 950 parts Oleyl Alcohol) | Solvency of DMAE ([3]; 50 parts DMAE in 950 parts Polyoxyethylene (2) Lauryl Ether) | Solvency of DMAE ([3]; 50 parts DMAE in 950 parts Squalane)
0.02 g: Solubility of DMAE ([4]; g DMAE per 100 g Liquid Paraffin at 25° C.)
2.5 g: Solubility of DMAE ([4]; g DMAE per 100 g Oleyl Alcohol at 25° C.)
1.8 g: Solubility of DMAE ([4]; g DMAE per 100 g Isostearyl Alcohol at 25° C.)
99 % by weight: Residual Rate (% by weight) Immediately after Preparation ([2]; in 2-Ethylhexyl Methacrylate) | Residual Rate (% by weight) after 7 Days ([2]; in 2-Ethylhexyl Methacrylate) | Residual Rate (% by weight) Immediately after Preparation ([2]; in Acrylic Acid) | Residual Rate (% by weight) after 7 Days ([2]; in Dodecyl Methacrylate)
39 % by weight: Residual Rate (% by weight) Immediately after Preparation ([2]; in 2-Ethylhexyl Acrylate)
Good: Solvency of the active substance [1, 9]
0.01 g: Solubility of DMAE ([4]; g DMAE per 100 g Squalane at 25° C.)
0.84 g: Solubility of DMAE ([4]; g DMAE per 100 g Octyldodecanol at 25° C.)
Poor: Solvency of the active substance [1, 5] | Solvency of the active substance [1, 6] | Solvency of the active substance [1, 7] | Solvency of the active substance [1, 10] | Solvency of the active substance [1, 11] | Solvency of DMAE ([3]; 50 parts DMAE in 950 parts Butylene Glycol) | Solvency of DMAE ([3]; 50 parts DMAE in 950 parts Isostearic Acid) | Solvency of DMAE ([3]; 50 parts DMAE in 950 parts Monoethanolamine) | Solvency of DMAE ([3]; 50 parts DMAE in 950 parts Octanediol) | Solvency of DMAE ([3]; 50 parts DMAE in 950 parts Propylene Glycol) | Solvency of DMAE ([3]; 50 parts DMAE in 950 parts Triacetin)
2.6 g: Solubility of DMAE ([4]; g DMAE per 100 g Lauryl Alcohol at 25° C.)
0.31 g: Solubility of DMAE ([4]; g DMAE per 100 g Medium-chain Triglyceride at 25° C.)
97 % by weight: Residual Rate (% by weight) after 7 Days ([2]; in Acrylic Acid)
11 % by weight: Residual Rate (% by weight) after 7 Days ([2]; in 2-Ethylhexyl Acrylate)
0.87 g: Solubility of DMAE ([4]; g DMAE per 100 g Diethyl Sebacate at 25° C.)
100 % by weight: Residual Rate (% by weight) Immediately after Preparation ([2]; in 1-Vinyl-2-Pyrrolidone) | Residual Rate (% by weight) after 7 Days ([2]; in 1-Vinyl-2-Pyrrolidone) | Residual Rate (% by weight) Immediately after Preparation ([2]; in Dodecyl Methacrylate)
3.7 g: Solubility of DMAE ([4]; g DMAE per 100 g Oleic Acid at 25° C.) | Solubility of DMAE ([4]; g DMAE per 100 g Polyoxyethylene (2) Lauryl Ether at 25° C.)

From US20090317452A1, “Transdermal patch” (Sekisui Chemical Co. td., priority 2006, published 2009)
